{"source": "ChEMBL document CHEMBL3779811", "about": "“A new dammarane-type saponin from Gynostemma pentaphyllum induces apoptosis in A549 human lung carcinoma cells” (Bioorg Med Chem Lett, 2016)", "key": {"A549 [1]": {"system": "A549", "test": "Cytotoxicity against human A549 cells assessed as decrease in viable cells at 60 ug/mL after 48 hrs by CCK-8 assay", "format": "functional"}, "A549 [2]": {"system": "A549", "test": "Cytotoxicity against human A549 cells assessed as decrease in viable cells after 48 hrs by CCK-8 assay", "format": "functional, cell-based", "conditions": "for IC50: A549, 48 h"}, "A549 [3]": {"system": "A549", "test": "Induction of apoptosis in human A549 cells assessed as mitochondrial depolarization at 50 ug/ml after 48 hrs by JC-1 staining based fluorescence microscopy", "format": "functional, cell-based"}, "A549 [4]": {"system": "A549", "test": "Induction of apoptosis in human A549 cells assessed as necrotic cells at 50 ug/mL after 48 hrs by Annexin V-FITC/propidium iodide staining based flow cytometry (reference value: 0.59 %)", "format": "functional"}, "A549 [5]": {"system": "A549", "test": "Induction of apoptosis in human A549 cells assessed as loss of mitochondrial membrane potential by measuring ratio of red to green fluorescence at 50 ug/ml after 48 hrs by JC-1 staining based flow cytometry (reference value: 28.9)", "format": "functional"}, "A549 [6]": {"system": "A549", "test": "Induction of apoptosis in human A549 cells assessed as chromatin condensation at 50 ug/mL after 48 hrs by Hoechst-33258 staining based fluorescence microscopy", "format": "functional, cell-based"}, "A549 [7]": {"system": "A549", "test": "Induction of apoptosis in human A549 cells assessed as mitochondrial membrane potential at 50 ug/ml after 48 hrs by JC-1 staining based flow cytometry (reference value: 96.66%)", "format": "functional"}, "A549 [8]": {"system": "A549", "test": "Induction of apoptosis in human A549 cells assessed as round and shrunken cells at 50 ug/mL after 48 hrs by inverted microscopy", "format": "functional, cell-based"}, "A549 [9]": {"system": "A549", "test": "Induction of apoptosis in human A549 cells assessed as viable cells at 50 ug/mL after 48 hrs by Annexin V-FITC/propidium iodide staining based flow cytometry (reference value: 91.46 %)", "format": "functional", "conditions": "A549, 48 h, read-out: Activity"}, "A549 [10]": {"system": "A549", "test": "Induction of apoptosis in human A549 cells assessed as increase in detached cells at 50 ug/ml after 48 hrs by inverted microscopy", "format": "functional, cell-based"}, "A549 [11]": {"system": "A549", "test": "Induction of apoptosis in human A549 cells assessed as early apoptotic cells at 50 ug/mL after 48 hrs by Annexin V-FITC/propidium iodide staining based flow cytometry (reference value: 4.57 %)", "format": "functional"}, "A549 [12]": {"system": "A549", "test": "Induction of apoptosis in human A549 cells assessed as late apoptotic cells at 50 ug/mL after 48 hrs by Annexin V-FITC/propidium iodide staining based flow cytometry (reference value: 3.38 %)", "format": "functional"}}, "note": "Activity calls are given as the source filed them. No cut-off for these calls is given here."}
{"compound": "CC(C)=CCC[C@](C)(O)[C@H]1CC[C@]2(C)[C@@H]1[C@H](O)C[C@@H]1[C@@]3(C)C[C@@H](O)[C@H](O[C@@H]4O[C@H](CO)[C@@H](O)[C@H](O)[C@H]4O[C@@H]4O[C@H](CO)[C@@H](O)[C@H](O)[C@H]4O)C(C)(C)[C@@H]3CC[C@]12C", "values": [{"measurement": "Activity", "setting": "A549 [1]", "value": 37.2, "unit": "%"}, {"measurement": "Activity", "setting": "A549 [2]", "value": "Dose-dependent effect"}, {"measurement": "IC50", "setting": "A549 [2]", "value": 78.6, "unit": "µg/mL"}]}
{"compound": "CC(C)=CCC[C@](C)(O)[C@@H]1CC[C@@]2(C)[C@H]1[C@@H](O)C[C@H]1[C@]3(C)C[C@H](O)[C@@H](O[C@H]4O[C@@H](CO)[C@H](O)[C@@H](O)[C@@H]4O)C(C)(C)[C@H]3CC[C@@]12C", "values": [{"measurement": "Activity", "setting": "A549 [3]", "value": "Active"}, {"measurement": "Activity", "setting": "A549 [4]", "value": 1.44, "unit": "%"}, {"measurement": "Ratio", "setting": "A549 [5]", "value": 8.7}, {"measurement": "Activity", "setting": "A549 [6]", "value": "Active"}, {"measurement": "Activity", "setting": "A549 [1]", "value": 44.7, "unit": "%"}, {"measurement": "Activity", "setting": "A549 [7]", "value": 89.64, "unit": "%"}, {"measurement": "Activity", "setting": "A549 [8]", "value": "Active"}, {"measurement": "Activity", "setting": "A549 [2]", "value": "Dose-dependent effect"}, {"measurement": "IC50", "setting": "A549 [2]", "value": 74.3, "unit": "µg/mL"}, {"measurement": "viability at 50 µg/mL", "setting": "A549 [9]", "value": 81.5, "unit": "%"}, {"measurement": "Activity", "setting": "A549 [10]", "value": "Active"}, {"measurement": "Activity", "setting": "A549 [11]", "value": 14.34, "unit": "%"}, {"measurement": "Activity", "setting": "A549 [12]", "value": 2.74, "unit": "%"}]}
{"compound": "CC(C)=CCC[C@@](C)(O)[C@H]1CC[C@]2(C)[C@@H]1[C@H](O)C[C@@H]1[C@@]3(C)C[C@@H](O)[C@H](O[C@@H]4O[C@H](CO)[C@@H](O)[C@H](O)[C@H]4O[C@@H]4O[C@H](CO)[C@@H](O)[C@H](O)[C@H]4O)C(C)(C)[C@@H]3CC[C@]12C", "values": [{"measurement": "Activity", "setting": "A549 [1]", "value": 30, "unit": "%"}, {"measurement": "Activity", "setting": "A549 [2]", "value": "Dose-dependent effect"}, {"measurement": "IC50", "setting": "A549 [2]", "value": 91, "unit": "µg/mL"}]}
{"compound": "CC(C)=CCC[C@@](C)(O[C@@H]1O[C@H](CO)[C@@H](O)[C@H](O)[C@H]1O)[C@@H]1CC[C@@]2(C)[C@H]1[C@@H](O)C[C@H]1[C@]3(C)C[C@H](O)[C@@H](O[C@H]4O[C@@H](CO)[C@H](O)[C@@H](O)[C@@H]4O[C@H]4O[C@@H](CO)[C@H](O)[C@@H](O)[C@@H]4O)C(C)(C)[C@H]3CC[C@@]12C", "values": [{"measurement": "IC50", "setting": "A549 [2]", "value": 112, "unit": "µg/mL"}]}
{"compound": "CC(=O)OC[C@H]1O[C@@H](O[C@H]2[C@H](O[C@H]3[C@H](O)C[C@]4(C)[C@H]5C[C@@H](O)[C@@H]6[C@@H](/C(C)=C\\CC=C(C)C)CC[C@@]6(C)[C@]5(C)CC[C@H]4C3(C)C)O[C@H](CO)[C@@H](O)[C@@H]2O)[C@H](O)[C@@H](O)[C@@H]1O", "values": [{"measurement": "IC50", "setting": "A549 [2]", "value": 61.2, "unit": "µg/mL"}]}
{"compound": "CC(C)=CCC[C@@](C)(O[C@@H]1O[C@H](CO[C@H]2OC[C@H](O)[C@@H](O)[C@@H]2O)[C@@H](O)[C@H](O)[C@H]1O)[C@@H]1CC[C@@]2(C)[C@H]1[C@@H](O)C[C@H]1[C@]3(C)C[C@H](O)[C@@H](O[C@H]4O[C@@H](CO)[C@H](O)[C@@H](O)[C@@H]4O[C@H]4O[C@@H](CO)[C@H](O)[C@@H](O)[C@@H]4O)C(C)(C)[C@H]3CC[C@@]12C", "values": [{"measurement": "IC50", "setting": "A549 [2]", "value": 168, "unit": "µg/mL"}]}
{"compound": "C=C(CCC=C(C)C)[C@H]1CC[C@]2(C)[C@@H]1[C@H](O)C[C@@H]1[C@@]3(C)C[C@@H](O)[C@H](O[C@@H]4O[C@H](CO)[C@@H](O)[C@H](O)[C@H]4O[C@@H]4O[C@H](COC(C)=O)[C@@H](O)[C@H](O)[C@H]4O)C(C)(C)[C@@H]3CC[C@]12C", "values": [{"measurement": "IC50", "setting": "A549 [2]", "value": 40.4, "unit": "µg/mL"}]}
{"compound": "C=C(CCC=C(C)C)[C@H]1CC[C@]2(C)[C@@H]1[C@H](O)C[C@@H]1[C@@]3(C)C[C@@H](O)[C@H](O[C@@H]4O[C@H](CO)[C@@H](O)[C@H](O)[C@H]4O[C@@H]4O[C@H](CO)[C@@H](O)[C@H](O)[C@H]4O)C(C)(C)[C@@H]3CC[C@]12C", "note": "[DAMULIN B]", "values": [{"measurement": "IC50", "setting": "A549 [2]", "value": 23.8, "unit": "µg/mL"}]}
{"compound": "CC(C)=CC/C=C(/C)[C@H]1CC[C@]2(C)[C@@H]1[C@H](O)C[C@@H]1[C@@]3(C)C[C@@H](O)[C@H](O[C@@H]4O[C@H](CO)[C@@H](O)[C@H](O)[C@H]4O[C@@H]4O[C@H](CO)[C@@H](O)[C@H](O)[C@H]4O)C(C)(C)[C@@H]3CC[C@]12C", "values": [{"measurement": "IC50", "setting": "A549 [2]", "value": 29, "unit": "µg/mL"}]}
